# Results: ChEMBL document CHEMBL3044907, “Sensitivity of Fusarium verticillioides isolates from rice to a novel cyanoacrylate fungicide” (Crop Prot, 2012)
# Experiments:
# [1] = system: Fusarium verticillioides; assay: (§1) Fungicidal activity against Fusarium verticilliodes isolate JS09 in rice seeds harvested from bakane diseased plants assessed as number of seedlings abnormally elongated or exhibiting symptoms of damping-off at 8.33 ug/ml at 30 degC incubated for 72 hr measured after 3 days under greenhouse trials (reference value: 32.6%); format: functional
# [2] = system: Fusarium verticillioides; assay: as §1, with “JS02” for “JS09”, “25” for “8.33”, “24.9%)” for “32.6%)”; format: functional
# [3] = system: Fusarium verticillioides; assay: as §1, with “N05” for “JS09”, “25” for “8.33”, “6.2%)” for “32.6%)”; format: functional
# [4] = system: Fusarium verticillioides; assay: as §1, with “YZ11” for “JS09”, “25” for “8.33”, “33.7%)” for “32.6%)”; format: functional
# [5] = system: Fusarium verticillioides; assay: as §1, with “YZ10” for “JS09”, “25” for “8.33”, “49.2%)” for “32.6%)”; format: functional
# [6] = system: Fusarium verticillioides; assay: as §1, with “YZ03” for “JS09”, “25” for “8.33”, “21.3%)” for “32.6%)”; format: functional
# [7] = system: Fusarium verticillioides; assay: as §1, with “6.25” for “8.33”; format: functional
# [8] = system: Fusarium verticillioides; assay: as §1, with “JS07” for “JS09”, “6.25” for “8.33”, “33.8%)” for “32.6%)”; format: functional
# [9] = system: Fusarium verticillioides; assay: as §1, with “YZ26” for “JS09”, “6.25” for “8.33”, “49.3%)” for “32.6%)”; format: functional
# [10] = system: Fusarium verticillioides; assay: as §1, with “YZ09” for “JS09”, “6.25” for “8.33”, “17.5%)” for “32.6%)”; format: functional
# [11] = system: Fusarium verticillioides; assay: as §1, with “YZ08” for “JS09”, “25” for “8.33”, “19.8%)” for “32.6%)”; format: functional
# [12] = system: Fusarium verticillioides; assay: as §1, with “YZ03” for “JS09”, “6.25” for “8.33”, “21.3%)” for “32.6%)”; format: functional
# [13] = system: Fusarium verticillioides; assay: as §1, with “JS07” for “JS09”, “12.5” for “8.33”, “33.8%)” for “32.6%)”; format: functional
# [14] = system: Fusarium verticillioides; assay: as §1, with “JS06” for “JS09”, “6.25” for “8.33”, “25.2%)” for “32.6%)”; format: functional
# [15] = system: Fusarium verticillioides; assay: as §1, with “JS04” for “JS09”, “12.5” for “8.33”, “16.2%)” for “32.6%)”; format: functional
# [16] = system: Fusarium verticillioides; assay: as §1, with “JS02” for “JS09”, “12.5” for “8.33”, “24.9%)” for “32.6%)”; format: functional
# [17] = system: Fusarium verticillioides; assay: as §1, with “N02” for “JS09”, “12.5” for “8.33”, “41.2%)” for “32.6%)”; format: functional
# [18] = system: Fusarium verticillioides; assay: as §1, with “JS08” for “JS09”, “25” for “8.33”, “13.0%)” for “32.6%)”; format: functional
# [19] = system: Fusarium verticillioides; assay: as §1, with “JS05” for “JS09”, “36.4%)” for “32.6%)”; format: functional
# [20] = system: Fusarium verticillioides; assay: as §1, with “JS04” for “JS09”, “16.2%)” for “32.6%)”; format: functional
# [21] = system: Fusarium verticillioides; assay: as §1, with “N04” for “JS09”, “14.5%)” for “32.6%)”; format: functional
# [22] = system: Fusarium verticillioides; assay: as §1, with “N02” for “JS09”, “41.2%)” for “32.6%)”; format: functional
# [23] = system: Fusarium verticillioides; assay: as §1, with “YZ26” for “JS09”, “49.3%)” for “32.6%)”; format: functional
# [24] = system: Fusarium verticillioides; assay: as §1, with “YZ08” for “JS09”, “12.5” for “8.33”, “19.8%)” for “32.6%)”; format: functional
# [25] = system: Fusarium verticillioides; assay: as §1, with “YZ05” for “JS09”, “12.5” for “8.33”, “33.3%)” for “32.6%)”; format: functional
# [26] = system: Fusarium verticillioides; assay: as §1, with “YZ02” for “JS09”, “12.5” for “8.33”, “29.8%)” for “32.6%)”; format: functional
# [27] = system: Fusarium verticillioides; assay: as §1, with “YZ01” for “JS09”, “12.5” for “8.33”, “33.6%)” for “32.6%)”; format: functional
# [28] = system: Oryza sativa; assay: Effect on germination of healthy Oryza sativa (rice) seed cultivar Liangyou 6326 at 6.25 to 25 ug/ml at 25 degC after 72 hr; format: ADME, organism-based; conditions: in vivo
# [29] = system: Oryza sativa; assay: Effect on germination of healthy Oryza sativa (rice) seed cultivar Fengliangyou 4 at 6.25 to 25 ug/ml at 25 degC after 72 hr; format: ADME, organism-based; conditions: in vivo
# [30] = system: Fusarium verticillioides; assay: Fungicidal activity against Fusarium verticilliodes assessed as mycelial growth inhibition at 25 degC after 3 to 5 days; format: functional, organism-based
# [31] = system: Fusarium verticillioides; assay: as §1, with “JS03” for “JS09”, “6.25” for “8.33”, “15.8%)” for “32.6%)”; format: functional
# [32] = system: Fusarium verticillioides; assay: as §1, with “JS01” for “JS09”, “6.25” for “8.33”, “32.5%)” for “32.6%)”; format: functional
# [33] = system: Fusarium verticillioides; assay: as §1, with “N06” for “JS09”, “6.25” for “8.33”, “9.6%)” for “32.6%)”; format: functional
structure (smiles),measurement,setting,value
CCOC(=O)/C(C#N)=C(/N)c1ccccc1,Activity,[1],1.2%
same,Activity,[2],0%
same,Activity,[3],0%
same,Activity,[4],0%
same,Activity,[5],0%
same,Activity,[6],0%
same,Activity,[7],4.2%
same,Activity,[8],1.3%
same,Activity,[9],4.1%
same,Activity,[10],2.8%
same,Activity,[11],0%
same,Activity,[12],2%
same,Activity,[13],0%
same,Activity,[14],1.7%
same,Activity,[15],0%
same,Activity,[16],0%
same,Activity,[17],0%
same,Activity,[18],0%
same,Activity,[19],0.2%
same,Activity,[20],1%
same,Activity,[21],0%
same,Activity,[22],0%
same,Activity,[23],1.2%
same,Activity,[24],0%
same,Activity,[25],0%
same,Activity,[26],0%
same,Activity,[27],0%
same,Activity,[28],Non-toxic
same,Activity,[29],Non-toxic
same,EC50,[30],0.316 mg/L
same,Activity,[31],1.4%
same,Activity,[32],1.6%
same,Activity,[33],0.8%
